Assay results taken from US8759520B2, “Compounds for treating cancer” (Boehringer Ingelheim International GmbH, priority 2008, dated 2014).

target: Bcl-2 (Homo sapiens, UniProt P10415); assay: Homogeneous HTS assay for inhibitors of the Bcl-2 : Bak (72-87) BH3 domain interaction, fluorescence polarisation (2D-FIDA); format: binding; details: fluorescence polarisation, fluorescent labelled Bak BH3 domain derived peptide; read-out: IC50 [μM] Bcl-2
Text: FIG. 1 is a schematic drawing of the Bcl-2: Bak (72-87) interaction assay based on fluorescence polarisation.
The homogeneous HTS assay for inhibitors of the Bcl-2 is shown schematically in FIG. 1. BH3 domain interaction is based on fluorescence polarisation. The inherent rotational diffusion of the Bak BH3 domain derived fluorescent labelled peptide decreases upon binding to Bc1-2. This shift in rotational diffusion is quantitated using the two-dimensional fluorescence intensity distribution analysis (2D-FIDA; Kask et al. 2000, Biophys. J. 78: 1703-1713).
Two different BH3 domain derived peptide ligands were synthesised and subsequently fluorescently labelled: • a 16mer peptide covering amino acids 72-87 of the Bak protein; this peptide had been used by Wang and co-workers and Holinger and coworkers in their Bcl-2 protein binding studies; Wang and co-workers reported an equilibrium binding constant KD of ˜0.2 μM to Bcl-2 protein; • peptide sequence: GQVGRQLAIIGDDINR—N (Wang et al. 2002, Proc. Natl. Acad. Sci. U.S.A. 97: 7124-7129; Holinger et al. 1999, J. Biol. Chem. 274: 13298-13304).

Sequence of Bcl-2 (P10415 whole entry, species assumed, the tested form may be a part): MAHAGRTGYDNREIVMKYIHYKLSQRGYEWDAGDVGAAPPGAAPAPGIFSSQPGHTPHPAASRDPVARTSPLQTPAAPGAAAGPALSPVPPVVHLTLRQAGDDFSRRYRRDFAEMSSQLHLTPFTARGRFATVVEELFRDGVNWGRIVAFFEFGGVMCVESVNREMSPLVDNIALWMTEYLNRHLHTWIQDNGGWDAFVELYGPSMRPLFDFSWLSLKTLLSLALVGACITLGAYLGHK

Row | IC50 | SMILES
1 | 11 to 100 µM | N=c1n(Cc2ccccc2)c2ccccc2n1Cc1ccccn1 [Compound 1, 1-Benzyl-3-pyridin-2-ylmethyl-1,3-dihydro-benzoimidazol-2-ylideneamine]
2 | > 100 µM | N=c1n(Cc2ccccc2)c2ccccc2n1Cc1cccnc1 [Compound 2, 1-Benzyl-3-pyridin-3-ylmethyl-1,3-dihydro-benzoimidazol-2-ylideneamine]
3 | > 100 µM | N=c1n(Cc2ccccc2)c2ccccc2n1Cc1ccncc1 [Compound 3, 1-Benzyl-3-pyridin-4-ylmethyl-1,3-dihydro-benzoimidazol-2-ylideneamine]
4 | > 100 µM | N=c1n(Cc2ccccc2)c2ccccc2n1CC1CCOCC1 [Compound 4, 1-Benzyl-3-(tetrahydro-pyran-4-ylmethyl)-1,3-dihydro-benzoimidazol-2-ylideneamine]
5 | < 10 µM | N=c1n(CCCOc2ccc(F)cc2)c2ccccc2n1Cc1ccc(Br)cc1 [Compound 5, 1-(4-Bromo-benzyl)-3-[3-(4-fluoro-phenoxy)-propyl]-1,3-dihydro-benzoimidazol-2-ylideneamine]
6 | 11 to 100 µM | N=c1n(CCCOc2ccc(F)cc2)c2ccccc2n1Cc1cccc(Br)c1 [Compound 6, 1-(3-Bromo-benzyl)-3-[3-(4-fluoro-phenoxy)-propyl]-1,3-dihydro-benzoimidazol-2-ylideneamine]
7 | 11 to 100 µM | N=c1n(CCSc2ccccc2)c2ccccc2n1Cc1ccc(Br)cc1 [Compound 7, 1-(4-Bromo-benzyl)-3-(2-phenylsulfanyl-ethyl)-1,3-dihydro-benzoimidazol-2-ylideneamine]
8 | 11 to 100 µM | CCOC(=O)Cn1c(=N)n(CCCOc2ccc(F)cc2)c2ccccc21 [Compound 8, {3-[3-(4-Fluoro-phenoxy)-propyl]-2-imino-2,3-dihydro-benzoimidazol-1-yl}-acetic acid ethyl ester]
9 | > 100 µM | N=c1n(CCCOc2ccc(Cl)cc2)c2ccccc2n1Cc1ccncc1 [Compound 9, 1-[3-(4-Chloro-phenoxy)-propyl]-3-pyridin-4-ylmethyl-1,3-dihydro-benzoimidazol-2-ylideneamine]
10 | 11 to 100 µM | N=c1n(CCCOc2ccc(F)cc2)c2ccccc2n1Cc1cccc(Cl)c1 [Compound 10, 1-(3-Chloro-benzyl)-3-[3-(4-fluoro-phenoxy)-propyl]-1,3-dihydro-benzoimidazol-2-ylideneamine]
11 | 11 to 100 µM | N=c1n(CCCOc2ccc(F)cc2)c2ccccc2n1Cc1ccc(Cl)c(Cl)c1 [Compound 11, 1-(3,4-Dichloro-benzyl)-3-[3-(4-fluoro-phenoxy)-propyl]-1,3-dihydro-benzoimidazol-2-ylideneamine]
12 | 11 to 100 µM | N=c1n(CCCOc2ccc(Cl)cc2)c2ccccc2n1Cc1ccc(Br)cc1 [Compound 12, 1-(4-Bromo-benzyl)-3-[3-(4-chloro-phenoxy)-propyl]-1,3-dihydro-benzoimidazol-2-ylideneamine]
13 | 11 to 100 µM | N=c1n(Cc2ccc(Br)cc2)c2ccccc2n1CC1COc2ccccc2O1 (centres unmarked) [Compound 13, 1-(4-Bromo-benzyl)-3-(2,3-dihydro-benzo[1,4]dioxin-2-ylmethyl)-1,3-dihydro-benzoimidazol-2-ylideneamine]
14 | 11 to 100 µM | N=c1n(CCCOc2ccc([N+](=O)[O-])cc2)c2ccccc2n1Cc1ccc(Br)cc1 [Compound 14, 1-(4-Bromo-benzyl)-3-[3-(4-nitro-phenoxy)-propyl]-1,3-dihydro-benzoimidazol-2-ylideneamine]
15 | < 10 µM | COC(=O)c1cccc(Cn2c(=N)n(CCCOc3ccc(F)cc3)c3ccccc32)c1 [Compound 15, 3-{3-[3-(4-Fluoro-phenoxy)-propyl]-2-imino-2,3-dihydro-benzoimidazol-1-ylmethyl}-benzoic acid methyl ester]
16 | 11 to 100 µM | N=c1n(CCCOc2ccc(F)cc2)c2ccccc2n1Cc1ccc(-c2ccc(F)cc2)cc1 [Compound 16, 1-(4′-Fluoro-biphenyl-4-ylmethyl)-3-[3-(4-fluoro-phenoxy)-propyl]-1,3-dihydro-benzoimidazol-2-ylideneamine]

Row | IC50 | SMILES
17 | 11 to 100 µM | Cn1c(=N)n(Cc2ccc(N3CCN(Cc4ccccc4-c4ccccc4)CC3)cc2)c2ccccc21 [Compound 17, 1-[4-(4-Biphenyl-2-ylmethyl-piperazin-1-yl)-benzyl]-3-methyl-1,3-dihydro-benzoimidazol-2-ylideneamine]
18 | < 10 µM | N=c1n(Cc2ccccc2)c2ccccc2n1Cc1ccc(N2CCN(Cc3ccccc3-c3ccccc3)CC2)cc1 [Compound 18, 1-Benzyl-3-[4-(4-biphenyl-2-ylmethyl-piperazin-1-yl)-benzyl]-1,3-dihydro-benzoimidazol-2-ylideneamine]
19 | 11 to 100 µM | N=c1n(CCCOc2ccc(F)cc2)c2ccccc2n1Cc1ccc(N2CCN(Cc3ccc(Cl)cc3)CC2)cc1 [Compound 19, 1-{4-[4-(4-Chloro-benzyl)-piperazin-1-yl]-benzyl}-3-[3-(4-fluoro-phenoxy)-propyl]-1,3-dihydro-benzoimidazol-2-ylideneamine]
20 | < 10 µM | N=c1n(CCCOc2ccc(F)cc2)c2ccccc2n1Cc1ccc(N2CCN(Cc3ccccc3Cl)CC2)cc1 [Compound 20, 1-{4-[4-(2-Chloro-benzyl)-piperazin-1-yl]-benzyl}-3-[3-(4-fluoro-phenoxy)-propyl]-1,3-dihydro-benzoimidazol-2-ylideneamine]
21 | < 10 µM | N=c1n(CCCOc2ccc(F)cc2)c2ccccc2n1Cc1ccc(N2CCN(Cc3cccc(Cl)c3)CC2)cc1 [Compound 21, 1-{4-[4-(3-Chloro-benzyl)-piperazin-1-yl]-benzyl}-3-[3-(4-fluoro-phenoxy)-propyl]-1,3-dihydro-benzoimidazol-2-ylideneamine]
22 | < 10 µM | N=c1n(CCCOc2ccc(F)cc2)c2ccccc2n1Cc1ccc(N2CCN(Cc3ccccc3)CC2)cc1 [Compound 22, 1-[4-(4-Benzyl-piperazin-1-yl)-benzyl]-3-[3-(4-fluoro-phenoxy)-propyl]-1,3-dihydro-benzoimidazol-2-ylideneamine]
23 | < 10 µM | N=c1n(CCCOc2ccc(F)cc2)c2ccccc2n1Cc1ccc(N2CCN(Cc3ccccc3-c3ccc(Cl)cc3)CC2)cc1 [Compound 24, 1-{4-[4-(4′-Chloro-biphenyl-2-ylmethyl)-piperazin-1-yl]-benzyl}-3-[3-(4-fluoro-phenoxy)-propyl]-1,3-dihydro-benzoimidazol-2-ylideneamine]
24 | < 10 µM | N=c1n(CCCOc2ccc(F)cc2)c2ccccc2n1Cc1ccc(N2CCN(Cc3ccccc3-c3ccccc3)CC2)cc1 [Compound 25, 1-[4-(4-Biphenyl-2-ylmethyl-piperazin-1-yl)-benzyl]-3-[3-(4-fluoro-phenoxy)-propyl]-1,3-dihydro-benzoimidazol-2-ylideneamine]
25 | < 10 µM | N=c1n(CCCOc2ccc(F)cc2)c2ccccc2n1Cc1cccc(N2CCN(Cc3ccccc3-c3ccccc3)CC2)c1 [Compound 26, 1-[3-(4-Biphenyl-2-ylmethyl-piperazin-1-yl)-benzyl]-3-[3-(4-fluoro-phenoxy)-propyl]-1,3-dihydro-benzoimidazol-2-ylideneamine]
26 | < 10 µM | N=c1n(CCCOc2ccc(F)cc2)c2ccccc2n1Cc1cccc(N2CCN(Cc3ccccc3-c3ccc(Cl)cc3)CC2)c1 [Compound 27, 1-{3-[4-(4′-Chloro-biphenyl-2-ylmethyl)-piperazin-1-yl]-benzyl}-3-[3-(4-fluoro-phenoxy)-propyl]-1,3-dihydro-benzoimidazol-2-ylideneamine]
27 | < 10 µM | N=c1n(CCCOc2ccccc2)c2ccccc2n1Cc1ccc(N2CCN(Cc3ccccc3-c3ccccc3)CC2)cc1 [Compound 28, 1-[4-(4-Biphenyl-2-ylmethyl-piperazin-1-yl)-benzyl]-3-(3-phenoxy-propyl)-1,3-dihydro-benzoimidazol-2-ylideneamine]
28 | < 10 µM | N=c1n(CCCOc2ccccc2)c2ccccc2n1Cc1cccc(N2CCN(Cc3ccccc3-c3ccccc3)CC2)c1 [Compound 29, 1-[3-(4-Biphenyl-2-ylmethyl-piperazin-1-yl)-benzyl]-3-(3-phenoxy-propyl)-1,3-dihydro-benzoimidazol-2-ylideneamine]
29 | < 10 µM | N=c1n(CCCOc2ccccc2)c2ccccc2n1Cc1ccc(N2CCN(Cc3ccccc3-c3ccc(Cl)cc3)CC2)cc1 [Compound 30, 1-{4-[4-(4′-Chloro-biphenyl-2-ylmethyl)-piperazin-1-yl]-benzyl}-3-(3-phenoxy-propyl)-1,3-dihydro-benzoimidazol-2-ylideneamine]
30 | < 10 µM | CC1(C)CCC(c2ccc(Cl)cc2)=C(CN2CCN(c3cccc(Cn4c(=N)n(CCCOc5ccc(F)cc5)c5ccccc54)c3)CC2)C1 [Compound 31, 1-(3-{4-[2-(4-Chloro-phenyl)-5,5-dimethyl-cyclohex-1-enylmethyl]-piperazin-1-yl}-benzyl)-3-[3-(4-fluoro-phenoxy)-propyl]-1,3-dihydro-benzoimidazol-2-ylideneamine]
31 | < 10 µM | CC1(C)CCC(c2ccc(Cl)cc2)=C(CN2CCN(c3ccc(Cn4c(=N)n(CCCOc5ccccc5)c5ccccc54)cc3)CC2)C1 [Compound 32, 1-(4-{4-[2-(4-Chloro-phenyl)-5,5-dimethyl-cyclohex-1-enylmethyl]-piperazin-1-yl}-benzyl)-3-(3-phenoxy-propyl)-1,3-dihydro-benzoimidazol-2-ylideneamine]
32 | < 10 µM | N=c1n(CCSc2ccccc2)c2ccccc2n1Cc1ccc(N2CCN(Cc3ccccc3-c3ccc(Cl)cc3)CC2)cc1 [Compound 33, 1-{4-[4-(4′-Chloro-biphenyl-2-ylmethyl)-piperazin-1-yl]-benzyl}-3-(2-phenylsulfanyl-ethyl)-1,3-dihydro-benzoimidazol-2-ylideneamine]
